Experimental data published in PubChem BioAssay (NCI).
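Following 48 hours of exposure in 96-well plates, responses at five concentrations were used to interpolate endpoints linearly. GI50 is the concentration that inhibits growth by half. The concentration for full growth arrest is given as TGI.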

Legend:
Experiment in all cases: DTP human tumour cell line panel, 48 h
[1] = test system: 786-0 renal
[2] = test system: A498 renal
[3] = test system: A549 NSCLC
[4] = test system: ACHN renal
[5] = test system: BT-549 breast
[6] = test system: CAKI-1 renal
[7] = test system: CCRF-CEM leukemia
[8] = test system: COLO 205 colon
[9] = test system: DU-145 prostate
[10] = test system: EKVX NSCLC
[11] = test system: HCC-2998 colon
[12] = test system: HCT-116 colon
[13] = test system: HCT-15 colon
[14] = test system: HL-60(TB) leukemia
[15] = test system: HOP-62 NSCLC
[16] = test system: HOP-92 NSCLC
[17] = test system: HS 578T breast
[18] = test system: HT29 colon
[19] = test system: IGROV1 ovarian
[20] = test system: K-562 leukemia
[21] = test system: KM12 colon
[22] = test system: LOX IMVI melanoma
[23] = test system: M14 melanoma
[24] = test system: MALME-3M melanoma
[25] = test system: MCF7 breast
[26] = test system: MDA-MB-231 breast
[27] = test system: MDA-MB-435
[28] = test system: MDA-N
[29] = test system: MOLT-4 leukemia
[30] = test system: NCI-H23 lung
[31] = test system: NCI-H460 lung
[32] = test system: NCI-H522 lung
[33] = test system: NCI/ADR-RES ovarian
[34] = test system: OVCAR-3 ovarian
[35] = test system: OVCAR-4 ovarian
[36] = test system: OVCAR-5 ovarian
[37] = test system: OVCAR-8 ovarian
[38] = test system: PC-3 prostate
[39] = test system: RPMI-8226 leukemia
[40] = test system: RXF 393 renal
[41] = test system: SF-268 CNS
[42] = test system: SF-295 CNS
[43] = test system: SF-539 CNS
[44] = test system: SK-MEL-2 melanoma
[45] = test system: SK-MEL-28 melanoma
[46] = test system: SK-MEL-5 melanoma
[47] = test system: SK-OV-3 ovarian
[48] = test system: SNB-19 CNS
[49] = test system: SNB-75 CNS
[50] = test system: SR leukemia
[51] = test system: SW-620 colon
[52] = test system: T-47D breast
[53] = test system: TK-10 renal
[54] = test system: U251 CNS
[55] = test system: UACC-257 melanoma
[56] = test system: UACC-62 melanoma
[57] = test system: UO-31 renal
[58] = test system: DLD-1 colon
[59] = test system: KM20L2 colon
[60] = test system: LXFL 529 NSCLC
[61] = test system: M19-MEL melanoma
[62] = test system: SN12C renal

Cc1cccc2c(N)c3cccc(C(=O)NCCNCCN)c3nc12
TGI [1]: 16.9 µM
TGI [2]: > 55.9 µM
TGI [3]: 20.4 µM
TGI [4]: > 100 µM
TGI [5]: 33.3 µM
TGI [6]: 79.9 µM
TGI [7]: > 100 µM
TGI [8]: > 33.4 µM
TGI [9]: > 72.4 µM
TGI [10]: > 94.6 µM
TGI [11]: > 40.8 µM
TGI [12]: > 42.6 µM
TGI [13]: > 100 µM
TGI [14]: > 100 µM
TGI [15]: > 46.3 µM
TGI [16]: > 71.8 µM
TGI [17]: 24.6 µM
TGI [18]: 91.2 µM
TGI [19]: > 100 µM
TGI [20]: > 100 µM
TGI [21]: > 100 µM
TGI [22]: 39.9 µM
TGI [23]: > 100 µM
TGI [24]: 36.2 µM
TGI [25]: > 100 µM
TGI [26]: 36.1 µM
TGI [27]: > 78.8 µM
TGI [28]: 58.6 µM
TGI [29]: > 96.1 µM
TGI [30]: 6.21 µM
TGI [31]: 19.8 µM
TGI [32]: 1.36 µM
TGI [33]: > 100 µM
TGI [34]: > 93.7 µM
TGI [35]: 19.1 µM
TGI [36]: > 100 µM
TGI [37]: 17.8 µM
TGI [38]: > 100 µM
TGI [39]: > 90.1 µM
TGI [40]: 36.1 µM
TGI [41]: 1.27 µM
TGI [42]: > 100 µM
TGI [43]: 22.4 µM
TGI [44]: 28.5 µM
TGI [45]: 36 µM
TGI [46]: > 58.4 µM
TGI [47]: > 100 µM
TGI [48]: 33.8 µM
TGI [49]: 4.88 µM
TGI [50]: > 100 µM
TGI [51]: > 100 µM
TGI [52]: > 86.1 µM
TGI [53]: 95.4 µM
TGI [54]: > 24.5 µM
TGI [55]: 99.3 µM
TGI [56]: 39.8 µM
TGI [57]: 51.5 µM

CC(=O)[CH-]C(=O)c1ccccc1.CC(=O)[CH-]C(=O)c1ccccc1.CC(=O)[CH-]C(=O)c1ccccc1.[Cl-].[Hf+4]
GI50 [1]: 25.7 µM
TGI [1]: > 100 µM
GI50 [2]: 25.5 µM
TGI [2]: 75.5 µM
GI50 [3]: 46.4 µM
TGI [3]: > 100 µM
GI50 [4]: 31.3 µM
TGI [4]: > 100 µM
GI50 [6]: 20.1 µM
TGI [6]: 62.6 µM
GI50 [7]: 9.36 µM
TGI [7]: > 100 µM
GI50 [8]: 34 µM
TGI [8]: > 100 µM
GI50 [58]: 25.8 µM
TGI [58]: > 100 µM
GI50 [10]: 24.2 µM
TGI [10]: 92.9 µM
GI50 [13]: 23.9 µM
TGI [13]: > 100 µM
GI50 [14]: 25.8 µM
TGI [14]: > 100 µM
GI50 [15]: 51.2 µM
TGI [15]: > 100 µM
GI50 [16]: 18.9 µM
TGI [16]: 50.4 µM
GI50 [18]: 19.1 µM
TGI [18]: > 100 µM
GI50 [19]: 47 µM
TGI [19]: > 100 µM
GI50 [20]: 37.6 µM
TGI [20]: > 100 µM
GI50 [21]: 36.1 µM
TGI [21]: > 100 µM
GI50 [59]: 25.1 µM
TGI [59]: > 100 µM
GI50 [22]: 14.4 µM
TGI [22]: 92.2 µM
GI50 [60]: 39.4 µM
TGI [60]: > 100 µM
GI50 [23]: 18.6 µM
TGI [23]: 60.8 µM
GI50 [61]: 27.3 µM
TGI [61]: > 100 µM
GI50 [24]: 14.8 µM
TGI [24]: 39.8 µM
GI50 [29]: 15.4 µM
TGI [29]: > 100 µM
GI50 [30]: 39.1 µM
TGI [30]: > 100 µM
GI50 [31]: 38.5 µM
TGI [31]: > 100 µM
GI50 [32]: 26.5 µM
TGI [32]: > 100 µM
GI50 [34]: 13.6 µM
TGI [34]: > 100 µM
GI50 [35]: 86.5 µM
TGI [35]: > 100 µM
GI50 [36]: 22.8 µM
TGI [36]: 71.8 µM
GI50 [37]: 27.9 µM
TGI [37]: > 100 µM
GI50 [39]: 34.2 µM
TGI [39]: > 100 µM
GI50 [40]: 47.4 µM
TGI [40]: > 100 µM
GI50 [41]: 23.7 µM
TGI [41]: > 100 µM
GI50 [42]: 19.8 µM
TGI [42]: > 100 µM
GI50 [44]: 18.1 µM
TGI [44]: 53.2 µM
GI50 [45]: 23.6 µM
TGI [45]: 85.3 µM
GI50 [46]: 32.5 µM
TGI [46]: > 100 µM
GI50 [47]: 46.1 µM
TGI [47]: > 100 µM
GI50 [62]: 28.8 µM
TGI [62]: > 100 µM
GI50 [49]: 22.2 µM
TGI [49]: 70.4 µM
GI50 [51]: 52.2 µM
TGI [51]: > 100 µM
GI50 [53]: 39 µM
TGI [53]: > 100 µM
GI50 [54]: 22 µM
TGI [54]: > 100 µM
GI50 [55]: 19.9 µM
TGI [55]: 75.3 µM
GI50 [56]: 29.7 µM
TGI [56]: > 100 µM
